# Test results as given in US20090317807A1, “Primers for Use in Detecting Metallo-Beta-Lactamases” (priority 2006, published 2009).
# Legend:
# [1] = test system: Pseudomonas aeruginosa (IMP-18); experiment: Broth microdilution antibiotic susceptibility (MicroScan dehydrated panels, NCCLS criteria); type: cell-based; details: for MIC: Pseudomonas aeruginosa, read-out: Microdilution MICs
# Method: The carbapenem-resistant P. aeruginosa isolate investigated in this study was recovered from the tracheal aspirate of a motorcycle accident victim in the southwestern United States.
# The isolate was identified by the Phoenix system (Becton Dickinson Diagnostic Systems, Sparks, Md.). Antibiotic susceptibility was determined by broth microdilution method with investigational dehydrated panels provided by Dade Behring MicroScan (Sacramento, Calif.) according to the manufacturer's recommendations and interpreted according to National Committee for Clinical Laboratory Standards (NCCLS) criteria (National Committee for Clinical Laboratory Standards, “Performance Standards for Antimicrobial Susceptibility Testing, Fourteenth informational supplement 24, Wayne, Pa. (2004)).
# [2] = test system: Pseudomonas aeruginosa (IMP-18); experiment: Etest metallo-beta-lactamase strip (imipenem with/without EDTA); type: cell-based
# Source text: Metallo-beta-lactamase production was phenotypically investigated by using the Etest metallo-beta-lactamase strip (AB BIODISK, Solna, Sweden).
# [3] = carbapenem-resistant P. aeruginosa clinical isolate producing IMP-18, broth microdilution
Molecule,"MIC [1, 3] [µg/mL]",other results
NCC[C@H](O)C(=O)N[C@@H]1C[C@H](N)[C@@H](O[C@H]2O[C@H](CN)[C@@H](O)[C@H](O)[C@H]2O)[C@H](O)[C@H]1O[C@H]1O[C@H](CO)[C@@H](O)[C@H](N)[C@H]1O [Amikacin],64,–
C[C@H]1[C@H](NC(=O)/C(=N\OC(C)(C)C(=O)O)c2csc(N)n2)C(=O)N1S(=O)(=O)O [Aztreonam],32,–
CO/N=C(\C(=O)N[C@@H]1C(=O)N2C(C(=O)[O-])=C(C[N+]3(C)CCCC3)CS[C@H]12)c1csc(N)n1 [Cefepime],> 64,–
CC(C)(O/N=C(\C(=O)N[C@@H]1C(=O)N2C(C(=O)[O-])=C(C[n+]3ccccc3)CS[C@H]12)c1csc(N)n1)C(=O)O [Ceftazidime],> 64,–
CO/N=C(\C(=O)N[C@@H]1C(=O)N2C(C(=O)O)=C(CSc3nc(=O)c(=O)[nH]n3C)CS[C@H]12)c1csc(N)n1 [Ceftriaxone],> 64,–
C[C@@H](O)[C@H]1C(=O)N2C(C(=O)O)=C(SCCN=CN)C[C@H]12 [Imipenem],64,"MIC ([2]; Pseudomonas aeruginosa, without EDTA): ≥ 256 µg/mL; MIC of imipenem by Etest in the presence of EDTA ([2]; in the presence of EDTA): 8 µg/mL; fold reduction in the MIC of imipenem in the presence of EDTA ([2]; with vs without EDTA): ≥ 32 fold"
C[C@H]1COc2c(N3CCN(C)CC3)c(F)cc3c(=O)c(C(=O)O)cn1c23 [Levofloxacin],> 16,–
CN(C)c1ccc(O)c2c1C[C@H]1C[C@H]3[C@H](N(C)C)C(O)=C(C(N)=O)C(=O)[C@@]3(O)C(O)=C1C2=O [Minocycline],> 128,–
CN(C)c1cc(NC(=O)CNC(C)(C)C)c(O)c2c1C[C@H]1C[C@H]3[C@H](N(C)C)C(O)=C(C(N)=O)C(=O)[C@@]3(O)C(O)=C1C2=O [Tigecycline],–,MIC [1]: 32 µg/mL
Gentamicin,–,"Microdilution MICs [1, 3]: >32 µg/mL"
Polymyxin B,–,"Microdilution MICs [1, 3]: 4 µg/mL"
